Tests used:
[1] = Evaluation of hygroscopicity (weight change in desiccators at set relative humidity); format: physicochemical; conditions: for Weight change: two days or more, 60 mg
Protocol: The crystalline form A of enavogliflozin in the known Korean Unexamined Patent Application Publication No. 2017-0142904 and the enavogliflozin crystalline form E were taken in amounts of 60 mg each and placed in desiccators at relative humidity of 11%, 33%, 54%, 75%, and 93%, each for two days or more to absorb moisture, and then the weight change was measured.

[2] = Stress stability evaluation for heat (60° C.), HPLC purity; format: physicochemical; conditions: for Purity: 60° C.
Text: (§1) To confirm the possibility of commercializing the novel crystalline form E of enavogliflozin of the present invention, the crystalline form A of enavogliflozin in Korean Unexamined Patent Application Publication No. 2017-0142904 was used as a control to test stress stability, and analyzed by high performance liquid chromatography (HPLC), and the results are shown in Tables 4 and 5.

[3] = Stress stability evaluation for moisture (93% RH), HPLC purity; format: physicochemical; conditions: for Purity: 93% RH
Text: as §1

[4] = Pharmacokinetic study in beagle dogs, oral administration; format: in vivo, beagle dog; conditions: 1 mg/kg
Protocol: Pharmacokinetic profiles of crystalline form A of enavogliflozin and the novel crystalline form E were to be confirmed in beagle dogs. The crystalline form A of enavogliflozin was set as a control, the novel crystalline form E was set as a comparison group, and each of the crystalline form A of enavogliflozin and the novel crystalline form E was orally administered to a male beagle dog at a dose of 1 mg/kg, and blood samples were collected before administration (0 hours), and at 0.083, 0.25, 0.5, 0.75, 1, 1.5, 2, 4, 6, 8, 12, and 24 hours (a total of 13 times). Blood drug concentrations were analyzed by LC-MS/MS using plasma separated from the collected samples, and pharmacokinetic parameters such as the maximum observed plasma concentration (Cmax), an area under the plasma concentration-time curve (AUClast and AUCinf), a time-to-maximum observed plasma concentration (Tmax), and a half-life (T1/2) were calculated and interpreted using the WinNonlin 5.0.1 program.

[5] = beagle dog, relative to crystalline form A

Weight change ([1]; relative humidity 11%)	Weight change ([1]; relative humidity 33%)	Weight change ([1]; relative humidity 54%)	Weight change ([1]; relative humidity 75%)	Weight change ([1]; relative humidity 93%)	Purity ([2]; Initial, HPLC)	Purity ([2]; Week 2, HPLC)	Purity ([2]; Week 4, HPLC)	Purity ([2]; Week 8, HPLC)	Purity ([3]; Initial, HPLC)	Purity ([3]; Week 2, HPLC)	Purity ([3]; Week 4, HPLC)	Structure (SMILES)	other results
0%	0.5%	0.5%	0.5%	0.5%	99.1%	98.8%	99.1%	99.5%	99.8%	99.8%	99.8%	OC[C@H]1O[C@@H](c2cc(Cc3ccc(C4CC4)cc3)c(Cl)c3c2CCO3)[C@H](O)[C@@H](O)[C@@H]1O [Crystalline form A of enavogliflozin, enavogliflozin]	–
0%	0.3%	0.3%	0.3%	0.3%	99.0%	99.2%	99.2%	99.5%	99.0%	99.3%	99.3%	OC[C@H]1O[C@@H](c2cc(Cc3ccc(C4CC4)cc3)c(Cl)c3c2CCO3)[C@H](O)[C@@H](O)[C@@H]1O [Crystalline form E of enavogliflozin, enavogliflozin]	Hygroscopicity compared to crystalline form A (in words) ([1]; relative humidity 11% to 93%): more improved hygroscopicity; Stress stability, purity and crystalline form (in words) ([2]; 8 weeks at 60° C.): stably maintained; Stress stability, purity and crystalline form (in words) ([3]; 4 weeks at 93% RH): stably maintained; PK exposure parameters AUClast and AUCinf compared to crystalline form A (in words) [4, 5]: increased; Tmax reduction compared to crystalline form A [4, 5]: ≥ 1.25 times; AUC(0-inf) ([4]; male beagle dog, plasma): 4820 ng·h/mL; AUC(0-t) ([4]; male beagle dog, plasma): 4540 ng·h/mL; Cmax ([4]; male beagle dog, plasma): 470 ng/mL; Tmax ([4]; male beagle dog, plasma): 3.2 h; half-life ([4]; male beagle dog, plasma): 5.04 h

From US20260098033A1, “NOVEL CRYSTALLINE FORM OF ENAVOGLIFLOZIN, AND PREPARATION METHOD THEREFOR” (DAEWOONG PHARMACEUTICAL CO., LTD., priority 2022, published 2026)
